Converted amounts (≈) assume the structure as drawn. Read-outs that look alike come from different tables or passages of the source.
What was measured:
[1] = molecular target: T1, AChE (Electrophorus electricus, UniProt O42275); assay: In vitro AChE inhibition (ELISA kit); type: biochemical, electric eels
T1 construct: purchased Sigma–Aldrich Chemie GmbH (Buchs, Switzerland)
Procedure: The effects of the title compounds on the in vitro AChE activity were evaluated using ELISA technology. AChE derived from electric eels was purchased from Sigma–Aldrich Chemie GmbH (Buchs, Switzerland). Briefly, the AChE was preincubated with different concentrations (500, 250, 125, 62.5, 31.25, 15.625, and 7.8125 μg/mL) of the compounds in PBS solution. Then, the AChE activities after incubation were measured using the corresponding ELISA kit according to the manufacturer’s instructions (Jiancheng, Nanjing, China). The detection was performed using a multifunctional microplate reader (SpectraMax® M2e, Thermo Scientific, Waltham, MA, USA).

[2] = test system: T. cinnabarinus; assay: Acaricidal activity against T. cinnabarinus (leaf spray on broad bean, 72 h); type: in vivo, Tetranychus cinnabarinus; details: for LC50: Tetranychus cinnabarinus; for acaricidal toxicity relative to compound 5: compared with compound 5
Procedure: An acaricidal activity assay of the test compounds against mites was conducted according to procedures outlined in the literature. […] The stock solution was then diluted to a series of working concentrations with 1% Tween 80 to obtain the test solutions. Subsequently, the leaves of two-leaf-stage broad beans were inoculated with 150–200 female adult T. cinnabarinus mites and reared in a greenhouse (26 ± 1 °C, 75–80% RH, 16 h light and 8 h dark alternatively) for 8 h. The test solution of the compound was then evenly sprayed on these leaves, which were then cultivated in the greenhouse for 72 h. In the blank control group, Tween 80 (1%) was used instead of the treatment solution. Cyetpyrafen (CAS NO. 1253429-01-4) was used as a positive control. Each treatment was repeated three times. The dead insects were recorded under a stereoscope, and the corrected mortalities of mites treated with the compounds were calculated.

[3] = Toxicity to brine shrimp Artemia; type: in vivo, Artemia salina; details: Artemia salina (brine shrimp), in vivo, other: immersion in test solution
Procedure: (§1) The toxicity of the title compounds to the brine shrimp A. salina was evaluated according to the reported method. […] Subsequently, approximately 50 hatched (10 h instar) brine shrimp were transferred into each pore of a 24-well plate filled with the test solutions. Finally, the brine shrimp were reared in an illumination incubator (28 ± 1 °C, 12 h light and 12 h dark alternatively) for 24 h. DMSO—1% Tween 20 was used as a blank control. Each treatment was conducted in triplicate. The dead insects were recorded under a stereoscope, and the corrected mortalities of A. salina treated with the compounds were calculated.

[4] = test system: A. salina; assay: Toxicity to brine shrimp Artemia; type: in vivo, Artemia salina
Procedure: as §1

[5] = 72 h, Table S1, read-out: Acaricidal activity LC50
[6] = read-out: Lethal activity to Artemia LC50
[7] = 12 h, read-out: Lethal activity to Artemia LC50
[8] = 72 h, main text and Figure 5, read-out: LC50 against T. cinnabarinus

T1 sequence (O42275 24-633): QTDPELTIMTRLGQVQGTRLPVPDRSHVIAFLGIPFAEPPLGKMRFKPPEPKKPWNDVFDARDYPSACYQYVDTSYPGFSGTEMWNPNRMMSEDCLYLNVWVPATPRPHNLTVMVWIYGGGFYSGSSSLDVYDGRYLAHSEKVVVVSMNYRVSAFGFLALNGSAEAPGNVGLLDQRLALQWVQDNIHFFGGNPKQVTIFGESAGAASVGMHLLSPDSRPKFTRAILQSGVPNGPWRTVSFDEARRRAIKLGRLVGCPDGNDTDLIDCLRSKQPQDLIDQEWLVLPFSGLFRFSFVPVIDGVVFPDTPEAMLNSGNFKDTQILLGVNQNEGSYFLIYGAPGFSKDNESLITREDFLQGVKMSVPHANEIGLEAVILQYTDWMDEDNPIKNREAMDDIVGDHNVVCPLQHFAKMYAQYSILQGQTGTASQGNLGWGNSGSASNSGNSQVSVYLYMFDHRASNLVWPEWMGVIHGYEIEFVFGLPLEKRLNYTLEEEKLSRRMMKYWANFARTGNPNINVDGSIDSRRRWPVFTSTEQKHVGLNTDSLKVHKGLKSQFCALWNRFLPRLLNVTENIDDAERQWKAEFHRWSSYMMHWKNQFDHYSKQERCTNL

SMILES | IC50 [1] [µM] | LC50 [2, 5] [µg/mL] | LC50 at 6 h [3, 6] [µg/mL] | LC50 at 12 h [3, 7] [µg/mL] | LC50 [2, 8] [µg/mL] | LC50 at 12 h ([3]; abstract (equals the 12 h value), read-out: LC50 against A. salina) [µg/mL] | acaricidal toxicity relative to compound 5 [2] | AChE inhibition IC50 [1] [µg/mL] | LC50 against T. cinnabarinus ([2]; 72 h, main text and Figure 5) [µg/mL] | Lethal activity to Artemia LC50 ([4]; 6 h) [µg/mL] | Lethal activity to Artemia LC50 ([4]; 12 h) [µg/mL]
COc1cc2ccc(=O)oc2cc1O [Compound 4, 7-hydroxy-6-methoxy-2H-chromen-2-one] | 551 | 144 (≈ 749 µM) | 27.2 (≈ 142 µM) | 14.2 (≈ 73.9 µM) | – | – | – | – | – | – | –
COc1cc2ccc(=O)oc2cc1OS(=O)(=O)c1ccccc1 [Compound 4a] | 431 | 448 (≈ 1350 µM) | 47 (≈ 141 µM) | 29.1 (≈ 87.6 µM) | – | – | – | – | – | – | –
COc1ccc(S(=O)(=O)Oc2cc3oc(=O)ccc3cc2OC)cc1 [Compound 4b] | 304 | 209 (≈ 577 µM) | 38.6 (≈ 107 µM) | 18.2 (≈ 50.2 µM) | – | – | – | – | – | – | –
COc1cc2ccc(=O)oc2cc1OS(=O)(=O)c1ccc(F)cc1 [Compound 4c] | 362 | 318 (≈ 908 µM) | 91.5 (≈ 261 µM) | 56.3 (≈ 161 µM) | – | – | – | – | – | – | –
COc1cc2ccc(=O)oc2cc1OS(=O)(=O)c1ccc(Cl)cc1 [Compound 4d] | 222 | 529 (≈ 1440 µM) | 33.6 (≈ 91.6 µM) | 16 (≈ 43.6 µM) | – | – | – | – | – | – | –
COc1cc2ccc(=O)oc2cc1OS(=O)(=O)c1ccc(Br)cc1 [Compound 4e] | 343 | 636 (≈ 1550 µM) | 157 (≈ 382 µM) | 89.8 (≈ 218 µM) | – | – | – | – | – | – | –
COc1cc2ccc(=O)oc2cc1OS(=O)(=O)c1ccc(C(F)(F)F)cc1 [Compound 4f] | 420 | 441 (≈ 1100 µM) | 109 (≈ 272 µM) | 75.6 (≈ 189 µM) | – | – | – | – | – | – | –
COc1cc2ccc(=O)oc2cc1OS(=O)(=O)c1ccc([N+](=O)[O-])cc1 [Compound 4g] | 353 | 183 (≈ 485 µM) | 46.7 (≈ 124 µM) | 25.6 (≈ 67.8 µM) | – | – | – | – | – | – | –
COc1cc2ccc(=O)oc2cc1OS(=O)(=O)c1cc(Cl)c(Cl)cc1Cl [Compound 4h] | 421 | 832 (≈ 1910 µM) | 131 (≈ 301 µM) | 125 (≈ 287 µM) | – | – | – | – | – | – | –
COc1cc2ccc(=O)oc2cc1OS(=O)(=O)c1cccs1 [Compound 4i] | 432 | 489 (≈ 1450 µM) | 76.5 (≈ 226 µM) | 45.1 (≈ 133 µM) | – | – | – | – | – | – | –
COc1cc2ccc(=O)oc2cc1OS(=O)(=O)c1ccc2ccccc2c1 [Compound 4j] | 148 | – | 13.6 (≈ 35.6 µM) | – | 93 (≈ 243 µM) | 9.36 (≈ 24.5 µM) | – | – | – | – | –
COc1cc2cc(-c3ccc(F)cc3)c(=O)oc2cc1OS(=O)(=O)c1ccccc1 [Compound 5a] | 95.2 | – | 95.8 (≈ 225 µM) | 55.8 (≈ 131 µM) | 57 (≈ 134 µM) | – | approximately 2 times | – | – | – | –
COc1ccc(S(=O)(=O)Oc2cc3oc(=O)c(-c4ccc(F)cc4)cc3cc2OC)cc1 [Compound 5b] | 336 | 338 (≈ 741 µM) | 94.5 (≈ 207 µM) | 36.2 (≈ 79.3 µM) | – | – | – | – | – | – | –
COc1cc2cc(-c3ccc(F)cc3)c(=O)oc2cc1OS(=O)(=O)c1ccc(F)cc1 [Compound 5c] | 192 | 94 (≈ 212 µM) | 94.7 (≈ 213 µM) | 48.6 (≈ 109 µM) | – | – | – | – | – | – | –
COc1cc2cc(-c3ccc(F)cc3)c(=O)oc2cc1OS(=O)(=O)c1ccc(Cl)cc1 [Compound 5d] | 149 | 99 (≈ 215 µM) | 72.8 (≈ 158 µM) | 33.7 (≈ 73.1 µM) | – | – | – | – | – | – | –
COc1cc2cc(-c3ccc(F)cc3)c(=O)oc2cc1OS(=O)(=O)c1ccc(Br)cc1 [Compound 5e] | 141 | 80 (≈ 158 µM) | 114 (≈ 226 µM) | 79.5 (≈ 157 µM) | – | – | – | – | – | – | –
COc1cc2cc(-c3ccc(F)cc3)c(=O)oc2cc1OS(=O)(=O)c1ccc(C(F)(F)F)cc1 [Compound 5f] | 242 | 104 (≈ 210 µM) | 71.5 (≈ 145 µM) | 39.9 (≈ 80.7 µM) | – | – | – | – | – | – | –
COc1cc2cc(-c3ccc(F)cc3)c(=O)oc2cc1OS(=O)(=O)c1ccc([N+](=O)[O-])cc1 [Compound 5g] | 261 | 68 (≈ 144 µM) | 86.6 (≈ 184 µM) | 53.6 (≈ 114 µM) | – | – | approximately 2 times | – | – | – | –
COc1cc2cc(-c3ccc(F)cc3)c(=O)oc2cc1OS(=O)(=O)c1cc(Cl)c(Cl)cc1Cl [Compound 5h] | 198 | 96 (≈ 181 µM) | 106 (≈ 200 µM) | 57.6 (≈ 109 µM) | – | – | – | – | – | – | –
COc1cc2cc(-c3ccc(F)cc3)c(=O)oc2cc1OS(=O)(=O)c1cccs1 [Compound 5i] | 255 | 73 (≈ 169 µM) | 99.8 (≈ 231 µM) | 56.7 (≈ 131 µM) | – | – | approximately 2 times | – | – | – | –
COc1cc2cc(-c3ccc(F)cc3)c(=O)oc2cc1OS(=O)(=O)c1ccc2ccccc2c1 [Compound 5j] | 115 | – | 77.9 (≈ 163 µM) | 29.7 (≈ 62.3 µM) | 20 (≈ 42 µM) | – | ~5 times | – | – | – | –
COc1cc2cc(C(C)=O)c(=O)oc2cc1O [Compound 6, 3-acetyl-7-hydroxy-6-methoxy-2H-chromen-2-one] | 395 | 81 (≈ 346 µM) | 56.5 (≈ 241 µM) | 35.6 (≈ 152 µM) | 81 to 116 (≈ 346 to 495 µM) | – | – | – | – | – | –
COc1cc2cc(C(C)=O)c(=O)oc2cc1OS(=O)(=O)c1ccc(Cl)cc1 [Compound 6d] | 355 | 159 (≈ 389 µM) | 45.5 (≈ 111 µM) | 27.9 (≈ 68.2 µM) | – | – | – | – | – | – | –
COc1cc2cc(C(C)=O)c(=O)oc2cc1OS(=O)(=O)c1cc(Cl)c(Cl)cc1Cl [Compound 6h] | 275 | 107 (≈ 224 µM) | 48.5 (≈ 102 µM) | 33.9 (≈ 71 µM) | – | – | – | – | – | – | –
COc1cc2cc(C(=O)Nc3ccc(Br)cc3)c(=O)oc2cc1O [Compound 7, 3-(4-bromoaniline formyl)-7-hydroxy-6-methoxy-2H-chromen-2-one] | 197 | 82 (≈ 210 µM) | 52.3 (≈ 134 µM) | 32.3 (≈ 82.8 µM) | 81 to 116 (≈ 208 to 297 µM) | – | – | – | – | – | –
COc1cc2cc(C(=O)Nc3ccc(Br)cc3)c(=O)oc2cc1OS(=O)(=O)c1ccccc1 [Compound 7a] | 221 | 117 (≈ 221 µM) | 57.6 (≈ 109 µM) | 33.6 (≈ 63.4 µM) | – | – | – | – | – | – | –
COc1cc2cc(C(=O)Nc3ccc(Br)cc3)c(=O)oc2cc1OS(=O)(=O)c1ccc(Cl)cc1 [Compound 7d] | 174 | 89 (≈ 158 µM) | 54.2 (≈ 96 µM) | 39.4 (≈ 69.8 µM) | – | – | – | – | – | – | –
CCn1nc(C)cc1/C(OC(=O)C(C)(C)C)=C(/C#N)c1ccc(C(C)(C)C)cc1 [Cyetpyrafen, reference compound] | – | – | – | – | – | – | – | 14.06 ± 10.20 | 15.0 (≈ 38.1 µM) | 11.7 | 6.13

Source: PMC9865501, “Design and Synthesis of Scopoletin Sulfonate Derivatives as Potential Insecticidal Agents” (Molecules, 2023)
